Source: the supplement of paper PMC10307832

Key:
Assay in all cases: relative viability (nuclei count vs DMSO), 5 days (fraction); higher = more cells survive
EHT 1864 + OSI-027 = compound: C1COCCN1CC2=CC(=O)C(=CO2)OCCCCCSC3=C4C=CC(=CC4=NC=C3)C(F)(F)F [EHT 1864] + COc1cccc2cc(-c3nc([C@H]4CC[C@H](C(=O)O)CC4)n4ncnc(N)c34)[nH]c12 [OSI-027] (partner 0.5 µM)
Summary of the method: (§1)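 Nuclei were stained with Hoechst during a one-step fixation (final 0.05% Triton X-100, 1% formaldehyde, 1 ug/ml Hoechst) carried out 5 days after dosing, then counted on 4× images. The cells, lung cancer lines in 1536-well plates, had been dosed by pin tool the day after seeding with one drug alone or a fixed anchor-drug dose plus five library-drug doses (not always all listed) in √10 steps. Relative viability is the nuclei count in treated wells divided by that in vehicle wells, and each value is the median of duplicate plates.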

EHT 1864 + Crizotinib = compound: C1COCCN1CC2=CC(=O)C(=CO2)OCCCCCSC3=C4C=CC(=CC4=NC=C3)C(F)(F)F [EHT 1864] + C[C@@H](Oc1cc(-c2cnn(C3CCNCC3)c2)cnc1N)c1c(Cl)ccc(F)c1Cl [Crizotinib] (partner 1 µM)
Summary of the method: as §1

EHT 1864 + Linsitinib = compound: C1COCCN1CC2=CC(=O)C(=CO2)OCCCCCSC3=C4C=CC(=CC4=NC=C3)C(F)(F)F [EHT 1864] + C[C@]1(O)C[C@@H](c2nc(-c3ccc4ccc(-c5ccccc5)nc4c3)c3c(N)nccn32)C1 [Linsitinib] (partner 1 µM)
Summary of the method: as §1

EHT 1864 + Tozasertib = compound: C1COCCN1CC2=CC(=O)C(=CO2)OCCCCCSC3=C4C=CC(=CC4=NC=C3)C(F)(F)F [EHT 1864] + Cc1cc(Nc2cc(N3CCN(C)CC3)nc(Sc3ccc(NC(=O)C4CC4)cc3)n2)n[nH]1 [Tozasertib] (partner 0.1 µM)
Summary of the method: as §1

Cell Line	relative viability (EHT 1864 + OSI-027; first compound 0.04 µM)	relative viability (EHT 1864 + OSI-027; first compound 0.1265 µM)	relative viability (EHT 1864 + OSI-027; first compound 0.4 µM)	relative viability (EHT 1864 + OSI-027; first compound 1.265 µM)	relative viability (EHT 1864 + OSI-027; first compound 4 µM)	relative viability (EHT 1864 + Crizotinib; first compound 0.04 µM)	relative viability (EHT 1864 + Crizotinib; first compound 0.1265 µM)	relative viability (EHT 1864 + Crizotinib; first compound 0.4 µM)	relative viability (EHT 1864 + Crizotinib; first compound 1.265 µM)	relative viability (EHT 1864 + Crizotinib; first compound 4 µM)	relative viability (EHT 1864 + Linsitinib; first compound 0.04 µM)	relative viability (EHT 1864 + Linsitinib; first compound 0.1265 µM)	relative viability (EHT 1864 + Linsitinib; first compound 0.4 µM)	relative viability (EHT 1864 + Linsitinib; first compound 1.265 µM)	relative viability (EHT 1864 + Linsitinib; first compound 4 µM)	relative viability (EHT 1864 + Tozasertib; first compound 0.04 µM)	relative viability (EHT 1864 + Tozasertib; first compound 0.1265 µM)	relative viability (EHT 1864 + Tozasertib; first compound 0.4 µM)	relative viability (EHT 1864 + Tozasertib; first compound 1.265 µM)	relative viability (EHT 1864 + Tozasertib; first compound 4 µM)
HCC-78	0.373	0.337	0.305	0.37	0.375	0.349	0.32	0.353	0.342	0.319	0.555	0.452	0.394	0.486	0.809	0.432	0.236	0.278	0.335	0.563
NCI-H2405	0.655	0.647	0.642	0.535	0.714	0.835	0.809	0.837	0.816	0.918	0.922	0.933	1.06		0.851	0.8	0.678	0.847	0.633	0.726
SK-LU-1	0.357	0.262	0.32	0.33	0.312	0.982	0.865	0.927	0.911	0.737	1.09	1	0.95	1.11	1.12	0.313	0.286	0.274	0.297	0.293
EMC-BAC-2	0.465	0.309	0.383	0.37	0.341	0.752	0.616	0.72	0.749	0.817	0.803	0.757	0.792	0.815	0.784	0.304	0.253	0.314	0.236	0.26
NCI-H596	0.716	0.651	0.803	0.572	0.529	1.02	1.04	0.931	0.896	0.973	1.06	1.11	0.989	0.906	0.964	0.843	0.733	0.869	1.06	0.754
LCLC-97TM1	0.429	0.583	0.339	0.568	0.517	0.399		0.42	0.442	0.285	0.202		0.148	0.168	0.233	0.289	0.196	0.181	0.19	0.227
H3255	0.552	0.582	0.603	0.602	0.616	0.683	0.65	0.938	0.817	1	0.934	0.848	1.04	1	0.898	0.576	0.603	0.633	0.677	0.527
LXF-289	0.848	0.738	0.769	0.775	0.713	0.802	0.791	0.752	0.706	0.688	0.926	0.929	0.883	0.898	0.821	0.201	0.144	0.196	0.209	0.203
UMC-11	0.463	0.366		0.483	0.47	0.611	0.537	0.568	0.607	0.507	1.02	0.978	0.986	0.962	0.963	0.206		0.2	0.207	0.192
LC-2-ad	0.808		1	0.98	0.788	0.493	0.454	0.432	0.526	0.564	0.862		0.806	0.804	0.79	0.483		0.516	0.391	0.487
A-427	0.524	0.345	0.503	0.447	0.469	0.949	0.945	0.817	0.8	0.811	1.09	1.18	1.15	1.11	1.13	0.198	0.232	0.208	0.189	0.217
NCI-H322M	0.591	0.444	0.535	0.585	0.533	0.927	0.837	0.849	0.995	1.05	0.89	0.806	0.98	0.878	0.968	0.477	0.457	0.448	0.461	0.51
HCC-366	0.805	0.603	0.939	0.872	0.935	0.434		0.423	0.554	0.487	0.647		0.699	0.598	0.522	0.13	0.168	0.0914	0.0579	0.0542
NCI-H1975	0.709	0.668	0.667		0.591	0.967	0.987	0.946	0.851	0.84	0.956	0.967	0.955	0.811	0.835	0.852	0.756	0.599		0.207
NCI-H1437	0.852	0.916	0.813	0.722	0.703	0.87	0.918	0.845	0.838	0.642	0.905	0.917	0.974	0.776	0.655	0.428	0.303	0.4	0.343	0.377
NCI-H2009	0.594	0.521	0.677	0.62	0.511	0.978	1.01	1.08	0.962	0.711	1.15	1.2	1.17	1.24	0.897	0.736	0.648	0.765	0.532	0.476
